# Test results from paper PMC9540667, “Novel insights on [1,2]oxazolo[5,4‐e]isoindoles on multidrug resistant acute myeloid leukemia cell line” (Drug Development Research, 2022).
# Like-named read-outs stand apart in the source and are kept apart here.
# Key:
# [1] = tested on: hTERT‐RPE‐1 cells; experiment: Cell growth assay (MTS), non-tumorigenic hTERT-RPE-1 cells; type: cell-based; conditions: the maximum concentration used in the MTS assay is reported, read-out: h‐TERT‐RPE‐1 (IC50)
# Method: (§1) HL‐60 cells were obtained from ATCC® (CCL‐240), whereas its variant HL‐60R was selected for MDR by exposure to gradually increasing concentrations of doxorubicin. MCF‐7 cells were obtained from ATCC® (HTB‐22). The nontumorigenic cell lines hTERT‐RPE‐1 (ATCC, CRL‐4010) and 1‐7HB2 (ECACC 10081201‐Cancer Research Technology) was kindly provided by Prof. Patrizia Cancemi and Prof. Giulio Ghersi (STEBICEF Department, University of Palermo, Italy), respectively. Cells were cultured in a humidified atmosphere at 37°C in 5% CO2. After obtaining the cells, the first passage carried out was assigned passage number 1. Cells with a narrow range of passage number […] were routinely tested for Mycoplasma contamination and were used for all experiments. HL‐60 and HL‐60R cells were cultured in Roswell Park Memorial Institute (RPMI) 1640, while MCF‐7, hTERT‐RPE‐1, and 1‐7HB‐2 cells were cultured in Dulbecco's Modified Eagle Medium (DMEM) (HyClone Europe Ltd.) low glucose, in particular only for 1‐7HB‐2 cells supplemented with hydrocortisone (5 μg/ml) and insulin (10 μg/ml). All media were supplemented with 10% heat‐inactivated fetal calf serum, 2 mM L‐glutamine, 100 U/ml penicillin, and 100 μg/ml streptomycin (all reagents were from EuroClone S.p.A.; GE Healthcare Life Sciences).
# (§2) Cells were seeded at 5 × 10^3 cells/well onto 96 well plates and incubated overnight at 37°C. At time 0, the medium was replaced with fresh complete medium supplemented with the [1,2]oxazolo[5,4‐e]isoindoles at large concentrations range. Following 72 h of treatment, 15 µl commercial solution obtained from Promega Corp. containing 3‐(4,5‐dimethylthiazol‐2‐yl)−5‐(3‐carboxymethoxyphenyl)−2‐(4‐sulphophenyl)−2H‐tetrazolium (MTS) and phenazine ethosulfate was added. The plates were incubated in a humidified atmosphere at 37°C in 5% CO2 for 2 h, and the bioreduction of MTS dye was evaluated by measuring the absorbance of each well at 490 nm using a microplate absorbance reader (iMark Microplate Reader; Bio‐Rad Laboratories, Inc.). Cell growth inhibition was expressed as a percentage of the absorbance of the control cells. Data were expressed as mean ± standard error (SE) of at least three different experiments performed in triplicate.
# [2] = tested on: MCF‐7 cells; experiment: Cell growth assay (MTS), MCF-7 breast cancer cells; type: cell-based; conditions: the maximum concentration used in the MTS assay is reported
# Method: as §1, §2
# [3] = tested on: HL‐60 cells; experiment: Cell growth assay (MTS), HL-60 cells; type: cell-based; conditions: mean ± SE
# Method: as §1, §2
# [4] = tested on: 1‐7HB2 cells; experiment: Cell growth assay (MTS), non-tumorigenic 1-7HB2 cells; type: cell-based; conditions: 72 h, the maximum concentration used in the MTS assay is reported
# Method: as §1, §2
# [5] = tested on: HL‐60R cells; experiment: Cell growth assay (MTS), HL-60R MDR variant; type: cell-based; conditions: 72 h of treatment, mean ± SE
# Method: as §1, §2
# [6] = tested on: HL‐60R cells; experiment: Viable cell count with Trypan blue exclusion test (cotreatments); type: cell-based; conditions: for synergistic / potentiation effect with the reference drugs (VIN or PTX): cotreatment at sub-cytotoxic concentrations
# Method: Potentiation or synergism due to cotreatments were evaluated by viable cell count with Trypan blue exclusion test. Data were expressed as mean ± SE of at least three different experiments performed in duplicate.
# [7] = tested on: HL‐60R cell line; experiment: Intracellular accumulation of doxorubicin (flow cytometry); type: cell-based
# Method: The effects of 4e and 4k on intracellular accumulation of doxorubicin were evaluated in the HL‐60R cell line. […] After 24 h of incubation doxorubicin 2 µM was added for 1 h. The cells were subsequently washed with PBS twice and then resuspended in a final volume of 400 µl of PBS. The fluorescence intensity of doxorubicin was measured by flow cytometry using a FACSAria III instrument (Becton Dickinson).
# [8] = tested on: tubulin in HL‐60R cells; experiment: Tubulin polymerization assay (soluble/polymerized fraction, western blot), HL-60R; type: cell-based; conditions: 24 h at the IC50 at 72 h
# Method: (§3) To separate cytosolic and cytoskeletal‐associated proteins, cells were rinsed in PEM buffer (0.1 M PIPES, pH 6.94; 2 mM EGTA; 1 mM MgCl2; 10% glycerol; 1 µM protease inhibitors cocktail; 0.5% Nonidet NP‐40), lysed at room temperature for 10 min with the same buffer (200 µl). After centrifugation (14,000 rpm at 4°C for 10 min), the soluble fraction (supernatant) was separated from polymerized fraction (pellet); the latter was resuspended in the same buffer (200 µl).
# (§4) Both the fractions were then diluted 3:1 with 4 × SDS‐PAGE sample buffer. Proteins were separated by SDS‐PAGE, and tubulin distribution was analyzed by immunoblotting using anti‐α‐tubulin antibody (Sigma‐Aldrich). Hybridization was visualized using an enhanced chemiluminescence detection kit (SuperSignal West Femto Maximum Sensitivity Substrate, Thermo Scientific Life Technologies Italia) and the Versa DOC imaging system (BioRad Laboratories).
# [9] = tested on: tubulin in HL‐60 cells; experiment: Tubulin polymerization assay (soluble/polymerized fraction, western blot), HL-60; type: cell-based; conditions: HL-60, 24 h at the IC50 at 72 h
# Method: as §3, §4
# [10] = tested on: HL‐60R cells; experiment: Cell death by flow cytometry (propidium iodide, preG0-G1 events); type: cell-based
# Method: Cells were collected and washed twice with ice‐cold PBS and then resuspended in a hypotonic fluorochrome solution containing propidium iodide (PI) 50 µg/ml in 0.1% sodium citrate plus 0.03% (v/v) Nonidet P‐40, at 1 × 10^6/ml. After incubation (at least 1 h at 4°C) in this solution, the samples were filtered through nylon cloth, 40 µm mesh, and their fluorescence was analyzed using a FACSCanto instrument (Becton Dickinson). The data were analyzed with BD FACSDiva software v.6.1.2. (Becton Dickinson). Cell death was determined by evaluating the percentage of events accumulated in the preG0‐G1 position.
# [11] = target: T1, recombinant human P‐gp membranes (Homo sapiens, UniProt P08183); experiment: P-gp ATPase activity (Pgp-Glo assay); type: biochemical; conditions: compound at its IC50; verapamil 0.5 mM
# T1 construct: purchased Promega
# Method: P‐gp ATPase activity was performed with Pgp‐Glo™ Assay Systems (Promega) following manufacturer's instructions. The compounds 4e and 4k, at their IC50s (test compound [TC]) were added to a 96‐well white plate in duplicate and incubated with recombinant human P‐gp membranes. The compound Na3VO4 (0.25 mM) was used as the selective inhibitor of P‐gp ATPase activity while negative control (no treatment [NT]) with only Pgp‐GLO assay buffer was used to provide a measure of unregulated ATPase activity. Verapamil (0.5 mM) is a P‐gp substrate that stimulates P‐gp ATPase activity and represents the positive control for drug stimulation of P‐gp ATPase activity. In fact, it is not a pure inhibitor of P‐gp function as well as Na3VO4, but in association with another P‐gp substrate like doxorubicin, it behaves as a competitive antagonist, that is, an efflux inhibitor. […]
# Luminescence was measured using a GLOMAX Multidetection System (Promega). The data were presented as change in luminescence (ΔRLU), calculated as follows: ΔRLUbasal is the difference between the average luminescent signals from Na3VO4‐treated samples (RLUNa3VO4) and untreated (NT) samples (RLUNT), ΔRLUTC that reflects P‐gp ATPase activity in the presence of the test compounds, is the difference between the average luminescent signals from Na3VO4‐treated samples (RLUNa3VO4) and test compound‐treated samples (RLUTC).
# [12] = tested on: XIAP, IAP‐1, Bcl‐2 in HL‐60R cells; experiment: Western blot of antiapoptotic factors (survivin, XIAP, IAP-1, Bcl-2); type: cell-based; conditions: co-treatment of 4k and PTX
# Method: Whole‐cell lysates were obtained from HL‐60R cells using RIPA buffer (Santa Cruz Biotechnology Inc.) and 25 µg protein was subjected to 10% SDS‐PAGE and transferred to nitrocellulose membrane (Amersham, Pharmacia Biotech) using a semi‐dry fast blot apparatus (Bio‐Rad). Membranes were blocked with 5% (w/v) BSA in PBS‐0.1% (v/v) Tween 20 for 1 h and then filters were incubated with primary antibodies raised against GAPDH (1:20,000; Sigma‐Aldrich Srl Milan), XIAP (1:500; Cell Signaling Technology, Inc), survivin (1:2000; Abcam Limited), Bcl‐2 (1:1000; Santa Cruz Biotechnology Inc.) and IAP‐1 (1:1000; Cell Signaling Technology, Inc). Hybridization was visualized using an enhanced chemiluminescence detection kit (SuperSignal West Femto Maximum Sensitivity Substrate, Thermo Scientific Life Technologies Italia) and the Versa DOC imaging system (BioRad Laboratories). Immunoblots were quantified by densitometry measurements after normalization with glyceraldehyde‐3‐phosphate dehydrogenase and results were expressed as fold changes.
# [13] = Homo sapiens, HL-60, 72 h of treatment
# T1 sequence (P08183 whole entry): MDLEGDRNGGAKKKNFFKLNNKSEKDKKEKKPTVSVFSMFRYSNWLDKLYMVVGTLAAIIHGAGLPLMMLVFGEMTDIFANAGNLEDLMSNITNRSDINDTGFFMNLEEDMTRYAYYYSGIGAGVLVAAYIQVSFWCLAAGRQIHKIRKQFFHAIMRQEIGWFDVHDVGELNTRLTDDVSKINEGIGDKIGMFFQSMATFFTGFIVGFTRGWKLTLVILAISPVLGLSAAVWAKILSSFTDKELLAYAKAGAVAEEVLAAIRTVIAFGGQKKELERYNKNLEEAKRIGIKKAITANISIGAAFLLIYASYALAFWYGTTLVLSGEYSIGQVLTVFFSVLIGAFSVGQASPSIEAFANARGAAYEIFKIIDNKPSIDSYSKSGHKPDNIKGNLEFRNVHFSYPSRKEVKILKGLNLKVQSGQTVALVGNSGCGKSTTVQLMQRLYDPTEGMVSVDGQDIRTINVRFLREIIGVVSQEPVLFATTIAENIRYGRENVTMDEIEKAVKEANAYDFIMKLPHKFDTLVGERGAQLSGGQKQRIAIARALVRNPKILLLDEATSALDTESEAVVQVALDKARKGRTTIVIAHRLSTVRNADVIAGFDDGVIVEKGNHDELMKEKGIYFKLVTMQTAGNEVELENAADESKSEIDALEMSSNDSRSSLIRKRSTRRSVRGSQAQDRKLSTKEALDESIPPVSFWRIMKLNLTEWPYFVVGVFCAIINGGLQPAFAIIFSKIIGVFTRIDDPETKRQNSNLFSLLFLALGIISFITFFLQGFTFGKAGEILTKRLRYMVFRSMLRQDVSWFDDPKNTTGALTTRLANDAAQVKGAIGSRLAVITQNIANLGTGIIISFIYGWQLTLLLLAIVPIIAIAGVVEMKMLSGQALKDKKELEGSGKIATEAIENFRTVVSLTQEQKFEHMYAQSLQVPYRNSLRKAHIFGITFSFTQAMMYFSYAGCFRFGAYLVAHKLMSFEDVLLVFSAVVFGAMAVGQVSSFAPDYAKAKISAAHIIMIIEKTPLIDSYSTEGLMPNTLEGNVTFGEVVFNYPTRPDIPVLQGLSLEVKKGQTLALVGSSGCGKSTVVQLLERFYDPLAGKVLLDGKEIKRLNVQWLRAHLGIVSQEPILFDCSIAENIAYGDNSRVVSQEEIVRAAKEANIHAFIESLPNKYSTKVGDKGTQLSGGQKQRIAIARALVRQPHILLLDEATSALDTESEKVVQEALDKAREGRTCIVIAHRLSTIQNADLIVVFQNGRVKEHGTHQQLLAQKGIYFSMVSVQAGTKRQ
SMILES,IC50 ([1]; 72 h),IC50 ([2]; 72 h),IC50 ([3]; 72 h of treatment),IC50 [4],IC50 [5],synergistic / potentiation effect with the reference drugs (VIN or PTX) [6],"IC50 [3, 13]",IC50 ([5]; HL60R),also measured
c1ccc(Cn2cc3c(c2)-c2oncc2CC3)cc1 [4a],> 20 µM,> 50 µM,1.9 ± 0.9 µM,> 20 µM,2.1 ± 0.2 µM,synergistic effect,–,–,"Cell growth inhibition (%) ([6]; 48 h, alone at 1 µM): 2.5 ± 1.8%"
COc1ccccc1Cn1cc2c(c1)-c1oncc1CC2 [4b],> 20 µM,> 50 µM,2.1 ± 0.4 µM,> 20 µM,2.4 ± 0.8 µM,–,–,–,–
COc1cccc(Cn2cc3c(c2)-c2oncc2CC3)c1 [4c],> 5 µM,> 50 µM,–,> 5 µM,–,synergistic effect,–,–,"Cell growth inhibition (%) ([6]; 48 h, alone at 0.2 µM): 42.5 ± 0.3%"
COc1ccc(Cn2cc3c(c2)-c2oncc2CC3)cc1OC [4d],> 5 µM,> 50 µM,0.6 ± 0.01 µM,> 5 µM,0.7 ± 0.09 µM,–,–,–,–
COc1cc(Cn2cc3c(c2)-c2oncc2CC3)cc(OC)c1OC [4e],> 0.1 µM,> 5 µM,–,> 0.1 µM,–,not detected any potentiation,–,–,"Fluorescence (%) HL‐60R ([7]; 0.04 µM for 24 h, without doxorubicin): 0.2 ± 0.07%; Fluorescence (%) HL‐60R (intracellular accumulation of doxorubicin) ([7]; pretreated 0.04 µM for 24 h + Doxo 2 µM 1 h): 8.8 ± 0.3 %"
"COc1ccc(Cn2cc3c(c2-c2cc(OC)c(OC)c(OC)c2)CCc2cnoc2-3)cc1OC [4k, 7‐(3,4‐dimethoxybenzyl)−6‐(3,4,5‐trimethoxyphenyl)−5,7‐dihydro‐4H‐[1,2]oxazolo[5,4‐e]isoindole]",–,–,–,> 20 µM,–,synergistic effect,3 ± 0.25 µM,5.5 ± 1.4 µM,"effect on soluble / polymerized tubulin fraction [8]: increasing the soluble fraction of tubulin; effect on soluble / polymerized tubulin fraction [9]: increasing the soluble fraction of tubulin; synergistic effect in induction of cell death ([10]; HL-60R, in combination with PTX and VIN): strong synergistic effect; IC50 ([1]; hTERT-RPE1, 72 h): > 20 µM; Fluorescence (%) HL‐60R ([7]; 5.50 µM for 24 h, without doxorubicin): 0.3 ± 0.1%; Fluorescence (%) HL‐60R (intracellular accumulation of doxorubicin) ([7]; pretreated 5.50 µM for 24 h + Doxo 2 µM 1 h): 22.5 ± 1.1 %; IC50 ([2]; Homo sapiens, MCF7, 72 h): > 50 µM; effect on verapamil‐stimulated P‐gp ATPase activity [11]: significative increase; protein expression of antiapoptotic factors XIAP, IAP‐1 and Bcl‐2 [12]: substantial protein expression decrease"
"COc1cccc2c1C(=O)c1c(O)c3c(c(O)c1C2=O)C[C@@](O)(C(=O)CO)C[C@@H]3O[C@H]1C[C@H](N)[C@H](O)[C@H](C)O1 [Doxorubicin, doxorubicin, reference compound]",–,–,–,–,–,–,–,–,"Fluorescence (%) HL‐60R ([7]; Doxo 2 µM 1 h alone): 4.4%; Fluorescence (%) HL‐60R ([7]; Doxo 2 µM 1 h alone, listed as Doxo): 4.4 ± 0.3%"
"CC(=O)O[C@H]1C(=O)[C@@]2(C)[C@H]([C@H](OC(=O)c3ccccc3)[C@]3(O)C[C@H](OC(=O)[C@H](O)[C@@H](NC(=O)c4ccccc4)c4ccccc4)C(C)=C1C3(C)C)[C@]1(OC(C)=O)CO[C@@H]1C[C@@H]2O [Paclitaxel, reference compound]",–,–,–,–,–,–,0.02 ± 0.04 µM,1.3 ± 0.14 µM,"effect on soluble / polymerized tubulin fraction [8]: marked increase in the polymerized fraction; effect on soluble / polymerized tubulin fraction [9]: marked increase in the polymerized fraction; Percentage of events accumulated in the pre G0‐G1 position (cell death) ([10]; 48 h, 1 µM): 7.6%; inhibition at 1 µM ([6]; HL60R, 48 h, alone at 1 µM, read-out: Cell growth inhibition (%)): 13 ± 9.2%"
"COc1ccc(CCN(C)CCCC(C#N)(c2ccc(OC)c(OC)c2)C(C)C)cc1OC (stereo not drawn) [Verapamil, reference compound]",–,–,–,–,–,–,–,–,"Fluorescence (%) HL‐60R ([7]; 10 µM for 24 h, without doxorubicin): 0.3 ± 0.1%; Fluorescence (%) HL‐60R (intracellular accumulation of doxorubicin) ([7]; pretreated 10 µM for 24 h + Doxo 2 µM 1 h): 58.5 ± 2.5 %"
"CC[C@]1(O)C[C@@H]2CN(CCc3c([nH]c4ccccc34)[C@@](C(=O)OC)(c3cc4c(cc3OC)N(C)[C@H]3[C@@](O)(C(=O)OC)[C@H](OC(C)=O)[C@]5(CC)C=CCN6CC[C@]43[C@@H]65)C2)C1 [Vinblastine, reference compound]",–,–,–,–,–,–,0.05 µM,0.82 ± 0.02 µM,"inhibition at 0.3 µM ([6]; HL60R, 48 h, alone at 0.3 µM, read-out: Cell growth inhibition (%)): 0%"
